Patent US20240239790A1, “7-Morpholino-1,6-Naphthyridin-5-yl Derivatives and Pharmaceutical Compositions Thereof Useful as DNA-PK Inhibitor” (adMare Therapeutics Society, priority 2021, published 2024)
Like-named read-outs stand apart in the source and are kept apart here.

Columns and labels:
[1] = target: T1, DNA-PK (Homo sapiens, UniProt P78527); assay: DNA-PK Assay for Biochemical Enzymatic Inhibition (ADP Glo Kinase assay); details: DNA-PK enzyme, Table 1
T1 construct: purchased Invitrogen PR9107A
Summary of the method: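 Human DNA-PK (25 ng) preincubated 15 min with compounds (ten three-fold dilutions) in HEPES pH 7.5, MgCl2, KCl, calf thymus DNA buffer, then substrate 434.4 μM and ATP 64.4 μM (final) for 60 min at room temperature. ADP-Glo luminescence; percent inhibition fitted by four-parameter regression for IC50.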

[2] = target: T2, DNA-PK phosphorylation at Serine 2056 (Homo sapiens, UniProt P78527); assay: Cellular Assay for Inhibition of DNA-PK Phosphorylation at Serine 2056 in FaDu cells (sandwich ELISA, neocarzinostatin); type: cell-based; details: pSer2056 DNA-PK, neocarzinostatin 1 μg/mL, Table 1
T2 construct: FaDu cells were purchased from ATCC; host or cells: FaDu
Summary of the method: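 FaDu cells pre-treated with compound (0.3% DMSO) for 1 h, then neocarzinostatin 1 μg/mL final added for 2 h to induce DSBs. Protein-normalised lysates read by sandwich ELISA for total and pSer2056 DNA-PK; % inhibition normalised between DMSO and NCS controls, IC50 from variable-slope log(inhibitor) fit.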

[3] = tested on: pDNA-PK induction in HCT116 tumour spheroids; assay: Multicellular tumour spheroid + radiation, pDNA-PK (ser2056) inhibition, immunohistochemical endpoint, HCT116; type: cell-based; details: Homo sapiens, 20 Gy, 20% O2
Summary of the method: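 HCT116 spheroids (~0.5 mm) in MEM/10% FBS, 20% O2, 37° C., pre-incubated 1 h with compound (10 or 5 μM down to 3.5 nM), irradiated 20 Gy, then 2 h further with compound. Cryosections immunostained for pDNA-PK ser2056; EC50 is concentration halving radiation-induced pDNA-PK.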

[4] = tested on: pDNA-PK induction in FaDU tumour spheroids; assay: Multicellular tumour spheroid + radiation, pDNA-PK (ser2056) inhibition, immunohistochemical endpoint, FaDU; type: cell-based; details: Homo sapiens, 20 Gy
Experimental: Multicellular tumour spheroids determination of compound inhibition of pDNA-PK induction following radiation. Tumour spheroids were grown to approximately 0.5 mm in diameter and irradiated with 20 Gy in combination with inhibitor test compounds to determine their potency. Inhibitor concentration for 50% reduction in pDNA-PK induction (IC50) was determined via immunohistochemical staining in spheroid cryosections taken 2 hours following radiation. For cell survival endpoint 8 Gy radiation was used and 3 hours following radiation spheroids were dissociated, counted and plated for colony forming endpoint.
Spheroid+radiation pDNA-PK. Radiation: 20 Gy. Drug: serial dilution 5 or 10 μM down to 3.5 nM (11 wells). Spheroids: 3-6 spheroids per well (300-500 μm diameter). 20% 02 and 5% CO2. 96 well plate format. Endpoint: fluorescent immunostain pDNA-PK ser2056 and image on microscope. Analysis: determine EC50 concentrations that decreases pDNA-PK induction by 50% after irradiation.
Multicellular tumour spheroids were used to determine potency of test compounds in a 3D tissue environment using inhibition of pDNA-PK induction following radiation or cell survival as the endpoint. For the pDNA-PK endpoint HCT116 or FaDU tumour spheroids were grown to approximately 0.5 mm in diameter and irradiated with 20 Gy in combination with inhibitor test compounds to determine their potency. Experiments were carried out in 96 well plates containing 0.7 mls of MEM media containing 10% FBS and 10 mM glucose under 20% O2 & 5% CO2 at 37° C. Following dilution of compounds 1:1000 from DMSO stocks, compounds were serially diluted from 10 μM down to 3.5 nM and 5-10 spheroids added. 96 well plates were constantly stirred to avoid spheroids settling during the course of the experiment. The inhibitor concentration for 50% reduction in pDNA-PK induction (EC50) was determined via immunohistochemical staining in spheroid cryosections taken 2 hours following radiation using anti-pDNA-PK (ser 2056) and fixed immediately in formalin following sectioning. For cell survival endpoint 8 Gy radiation was used and, 3 hours following radiation, spheroids were dissociated, counted and plated for colony forming endpoint. Data presented in the table compound potency as EC50 [μM].

[5] = Microsomal Stability Assay, mouse liver microsomes; type: in vitro ADME; details: for microsomal CLint at 0.1 uM: male, CD-1, pH 7.4, mouse liver microsomes 0.1 mg/mL, 0.1 uM compound; for Microsomal Stability Mouse % rem. 60 min: mouse liver microsomes
Experimental: Samples were then mixed and centrifuged. Supernatants were used for HPLC-MS/MS analysis. […] Peak areas corresponding to the test compound were recorded.

[6] = HCT-116, 2 h, spheroids, Example 8, read-out: Cell line: HCT116 Immunohistochemical endpoint pDNA-PK inhibition EC50
[7] = HCT-116, 2 hours following radiation, Example 9 Study 2, read-out: Spheroid Cell line: HCT116 Immunohistochemical endpoint pDNA-PK inhibition EC50
[8] = HCT-116, Spheroid, Cell Line: HCT115 (so in the source), 2 hours following radiation, Example 7, read-out: EC50, Immunohistochemical endpoint, pDNA-PK inhibition
[9] = 2 hours following radiation, 20% O2, Example 9 Study 2, read-out: Spheroid Cell line: FaDU Immunohistochemical endpoint pDNA-PK inhibition EC50
[10] = 2 h, spheroids, 20% O2, Example 8, read-out: Cell line: FaDU Immunohistochemical endpoint pDNA-PK inhibition EC50

IC50 [1] [nM] | IC50 [2] [nM] | EC50 [3, 6] [nM] | EC50 [3, 7] [nM] | EC50 [3, 8] [nM] | EC50 [4, 9] [nM] | EC50 [4, 10] [nM] | microsomal CLint at 0.1 uM [5] [µL/min/mg] | Microsomal Stability Mouse % rem. 60 min [5] | Structure (SMILES)
0.5 to 1 | 100 to 1000 | 1000 to 10000 | 1000 to 10000 | 1000 to 10000 | 500 to 1000 | 500 to 1000 | – | – | COc1ccc(NC(=O)N[C@H]2CC[C@@H](Oc3nc(N4CCOCC4)cc4ncccc34)CC2)cc1 [Compound 152, 1-(4-Methoxyphenyl)-3-((1s,4s)-4-((7-morpholino-1,6-naphthyridin-5-yl)oxy)cyclohexyl)urea]
1 to 10 | 100 to 1000 | 1000 to 10000 | 1000 to 10000 | 1000 to 10000 | 500 to 1000 | 500 to 1000 | > 116 | E (% remaining = 0-25%) | O=C(Nc1ccncc1)[C@H]1CC[C@@H](Oc2nc(N3CCOCC3)cc3ncccc23)CC1 [Compound 154e, (1S,4S)-4-((7-morpholino-1,6-naphthyridin-5-yl)oxy)-N-(pyridin-4-yl)cyclohexane-1-carboxamide]
< 0.5 | 100 to 1000 | 500 to 1000 | 500 to 1000 | 500 to 1000 | 1000 to 10000 | 1000 to 10000 | – | – | CN(C)C(=O)COc1cnc(N[C@H]2CC[C@@H](Oc3nc(N4CCOCC4)cc4ncc(Br)cc34)CC2)nc1 [Compound 178, 2-((2-(((1s,4s)-4-((3-bromo-7-morpholino-1,6-naphthyridin-5-yl)oxy)cyclohexyl)amino)pyrimidin-5-yl)oxy)-N,N-dimethylacetamide]
< 0.5 | 1000 to 10000 | 1000 to 10000 | 1000 to 10000 | 1000 to 10000 | 1000 to 10000 | 1000 to 10000 | < 116 | H (% remaining = 75-100%) | O=C(O)c1cnc2cc(N3CCOCC3)nc(O[C@H]3CC[C@@H](Nc4ncccn4)CC3)c2c1 [Compound 183, 7-morpholino-5-(((1s,4s)-4-(pyrimidin-2-ylamino)cyclohexyl)oxy)-1,6-naphthyridine-3-carboxylic acid]
